Drawing on patent publication US8987195B2 (priority 2012, dated 2015), this text covers IC50 and EC50 for 13 molecules.

Molecules are shown by their SMILES. Like-named read-outs stand apart in the source and are kept apart here.

Experiment [1] has as its target HCV NS3/4A protease genotype 1b (Hepatitis C virus genotype 1b, UniProt P26663). Description: HCV NS3/4A protease time-resolved fluorescence (TRF) assay, Ki against genotype 1b. It counts as biochemical. The note with it: IC50 [gt-1b] (nM), NS3/4A genotype 1b, enzyme 0.2 nM. In short, it runs like this:
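Ki values come from IC50 fits corrected for substrate concentration and KM. The time-resolved fluorescence protease reaction used 25 nM peptide substrate, 2.5 h, room temperature, pH 7.5 HEPES buffer, after 30 min enzyme–inhibitor preincubation.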

Another experiment deals with HCV genotype 1b replicon. Kind of experiment: HCV replicon assay, genotype 1b replicon EC50. It counts as cell-based, Hepatitis C virus. Conditions: genotype 1b replicon, read-out: EC50 [gt-1b]. An outline of the steps: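 Potency comes from a four-parameter fit of signal as percent of DMSO control. Replicon-bearing cells were treated 24-48 hours with a compound dilution series in absence of G418, and replicon RNA was quantified normalized to cyclophilin A RNA, or luciferase read.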

HCV NS3/4A protease genotype 1b, sequence (P26663 1027-1657): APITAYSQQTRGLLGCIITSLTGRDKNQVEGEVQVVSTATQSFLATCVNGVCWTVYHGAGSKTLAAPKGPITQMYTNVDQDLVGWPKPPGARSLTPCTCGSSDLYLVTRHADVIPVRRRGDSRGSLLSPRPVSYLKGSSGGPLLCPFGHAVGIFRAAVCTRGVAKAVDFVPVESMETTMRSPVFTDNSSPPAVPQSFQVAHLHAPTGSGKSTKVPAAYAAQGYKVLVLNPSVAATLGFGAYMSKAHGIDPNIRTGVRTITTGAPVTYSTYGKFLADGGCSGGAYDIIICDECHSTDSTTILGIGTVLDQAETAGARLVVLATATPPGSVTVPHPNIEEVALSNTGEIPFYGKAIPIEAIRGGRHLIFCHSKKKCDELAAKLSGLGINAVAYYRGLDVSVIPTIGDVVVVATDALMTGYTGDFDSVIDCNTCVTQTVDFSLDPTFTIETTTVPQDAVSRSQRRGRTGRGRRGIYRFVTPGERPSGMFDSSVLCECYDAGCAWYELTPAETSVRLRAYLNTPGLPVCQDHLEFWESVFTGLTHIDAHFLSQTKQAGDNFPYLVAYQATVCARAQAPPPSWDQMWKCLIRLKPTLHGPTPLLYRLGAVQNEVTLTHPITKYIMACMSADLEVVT
HCV NS3/4A protease genotype 1b, sequence (P26663 1658-1711): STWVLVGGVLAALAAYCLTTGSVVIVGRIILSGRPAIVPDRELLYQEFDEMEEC

As a reminder, the IC50 is the concentration that inhibits the measured activity by half. The EC50 is the concentration that produces a half-maximal response. In experiment [1], `Cc1nc2ccccc2c2c1O[C@]1(CC2)C[C@H]2C(=O)N[C@]3(C(=O)NS(=O)(=O)C4(C)CC4)C[C@H]3/C=C\CCCCC[C@H](NC(=O)OC3(C(C)C)CC3)C(=O)N2C1` [Example 116, 1-(propan-2-yl)cyclopropyl [(2R,6S,12Z,13aS,14aR,16aS)-5′-methyl-14a-{[(1-methylcyclopropyl)sulfonyl]carbamoyl}-5,16-dioxo-1,1′,2′,5,6,7,8,9,10,11,13a,14,14a,15,16,16a-hexadecahydrospiro[cyclopropa[e]pyrrolo[1,2-a][1,4]diazacyclopentadecine-2,3′-pyrano[2,3-c]quinolin]-6-yl]carbamate] displayed an IC50 of 0.008 nM. Besides, the EC50 with HCV genotype 1b replicon (Hepatitis C virus) was 0.312 nM.
On to `Cc1nc2ccccc2c2c1O[C@]1(CC2O)C[C@H]2C(=O)N[C@]3(C(=O)NS(=O)(=O)C4(C)CC4)C[C@H]3/C=C\CCCCC[C@H](NC(=O)OC(C)(C)C)C(=O)N2C1` (stereo partly drawn) [Example 118, tert-butyl [(2S,6S,12Z,13aS,14aR,16aS)-1′-hydroxy-5′-methyl-14a-{[(1-methylcyclopropyl)sulfonyl]carbamoyl}-5,16-dioxo-1,1′,2′,5,6,7,8,9,10,11,13a,14,14a,15,16,16a-hexadecahydrospiro[cyclopropa[e]pyrrolo[1,2-a][1,4]diazacyclopentadecine-2,3′-pyrano[2,3-c]quinolin]-6-yl]carbamate], for which, in experiment [1], the IC50 amounted to 0.027 nM. For the same molecule, the EC50 in the experiment with HCV genotype 1b replicon was determined as 47.3 nM.
In turn, `Cc1nc2ccccc2c2c1O[C@]1(CC2O)C[C@H]2C(=O)N[C@]3(C(=O)NS(=O)(=O)C4(C)CC4)C[C@H]3/C=C\CCCCC[C@H](NC(=O)OC(C)C)C(=O)N2C1` (stereo partly drawn) [Example 119, propan-2-yl [(2S,6S,12Z,14aR,16aS)-1′-hydroxy-5′-methyl-14a-{[(1-methylcyclopropyl)sulfonyl]carbamoyl}-5,16-dioxo-1,1′,2′,5,6,7,8,9,10,11,13a,14,14a,15,16,16a-hexadecahydrospiro[cyclopropa[e]pyrrolo[1,2-a][1,4]diazacyclopentadecine-2,3′-pyrano[2,3-c]quinolin]-6-yl]carbamate] yielded an IC50 in experiment [1] of 0.031 nM. The EC50 with HCV genotype 1b replicon (Hepatitis C virus) is about 78.5 nM.
In turn, `Cc1nc2ccccc2c2c1O[C@]1(CC2O)C[C@H]2C(=O)N[C@]3(C(=O)NS(=O)(=O)C4(C)CC4)C[C@H]3/C=C\CCCCC[C@H](NC(=O)OC(C)(C)C)C(=O)N2C1` (stereo partly drawn) [Example 120, tert-butyl [(2S,6S,12Z,13aS,14aR,16aS)-1′-hydroxy-5′-methyl-14a-{[(1-methylcyclopropyl)sulfonyl]carbamoyl}-5,16-dioxo-1,1′,2′,5,6,7,8,9,10,11,13a,14,14a,15,16,16a-hexadecahydrospiro[cyclopropa[e]pyrrolo[1,2-a][1,4]diazacyclopentadecine-2,3′-pyrano[2,3-c]quinolin]-6-yl]carbamate] returned an IC50 in experiment [1] of 0.032 nM. Moreover, in the experiment on HCV genotype 1b replicon, the EC50 stood at 19 nM.
Molecule `Cc1nc2ccccc2c2c1O[C@]1(CC2)C[C@H]2C(=O)N[C@]3(C(=O)NS(=O)(=O)C4(C)CC4)C[C@H]3/C=C\CCCCC[C@H](NC(=O)OCC(F)F)C(=O)N2C1` [Example 121, 2,2-difluoroethyl [(2R,6S,12Z,13aS,14aR,16aS)-5′-methyl-14a-{[(1-methylcyclopropyl)sulfonyl]carbamoyl}-5,16-dioxo-1,1′,2′,5,6,7,8,9,10,11,13a,14,14a,15,16,16a-hexadecahydrospiro[cyclopropa[e]pyrrolo[1,2-a][1,4]diazacyclopentadecine-2,3′-pyrano[2,3-c]quinolin]-6-yl]carbamate] yielded an IC50 in experiment [1] of 0.025 nM. In the experiment with HCV genotype 1b replicon (Hepatitis C virus), the EC50 worked out at 6.46 nM.
The like results for `Cc1nc2ccc(OC(F)(F)F)cc2c2c1O[C@]1(CC2)C[C@H]2C(=O)N[C@]3(C(=O)NS(=O)(=O)C4(C)CC4)C[C@H]3/C=C\CCCCC[C@H](NC(=O)OC3(C)CC3)C(=O)N2C1` [Example 122, 1-methylcyclopropyl [(2R,6S,12Z,13aS,14aR,16aS)-5′-methyl-14a-{[(1-methylcyclopropyl)sulfonyl]carbamoyl}-5,16-dioxo-9′-(trifluoromethoxy)-1,1′,2′,5,6,7,8,9,10,11,13a,14,14a,15,16,16a-hexadecahydrospiro[cyclopropa[e]pyrrolo[1,2-a][1,4]diazacyclopentadecine-2,3′-pyrano[2,3-c]quinolin]-6-yl]carbamate] were, in that order, 0.019 nM and 1.98 nM.
With `Cc1nc2ccc(OC(F)(F)F)cc2c2c1O[C@]1(CC2)C[C@H]2C(=O)N[C@]3(C(=O)NS(=O)(=O)C4(C)CC4)C[C@H]3/C=C\CCCCC[C@H](NC(=O)OC(C)C)C(=O)N2C1` [Example 123, propan-2-yl [(2R,6S,12Z,13aS,14aR,16aS)-5′-methyl-14a-{[(1-methylcyclopropyl)sulfonyl]carbamoyl}-5,16-dioxo-9′-(trifluoromethoxy)-1,1′,2′,5,6,7,8,9,10,11,13a,14,14a,15,16,16a-hexadecahydrospiro[cyclopropa[e]pyrrolo[1,2-a][1,4]diazacyclopentadecine-2,3′-pyrano[2,3-c]quinolin]-6-yl]carbamate], the IC50 in experiment [1] stood at 0.017 nM. For the same molecule, in the experiment with HCV genotype 1b replicon (Hepatitis C virus), the EC50 amounted to 2.07 nM.
The molecule `Cc1nc2ccc(OC(F)(F)F)cc2c2c1O[C@]1(CC2)C[C@H]2C(=O)N[C@]3(C(=O)NS(=O)(=O)C4(C)CC4)C[C@H]3/C=C\CCCCC[C@H](NC(=O)OCC(C)C)C(=O)N2C1` [Example 124, 2-methylpropyl [(2R,6S,12Z,13aS,14aR,16aS)-5′-methyl-14a-{[(1-methylcyclopropyl)sulfonyl]carbamoyl}-5,16-dioxo-9′-(trifluoromethoxy)-1,1′,2′,5,6,7,8,9,10,11,13a,14,14a,15,16,16a-hexadecahydrospiro[cyclopropa[e]pyrrolo[1,2-a][1,4]diazacyclopentadecine-2,3′-pyrano[2,3-c]quinolin]-6-yl]carbamate] yielded an IC50 in experiment [1] of 0.016 nM. Further, in the experiment with HCV genotype 1b replicon (Hepatitis C virus), the EC50 was 2.49 nM.
The matching figures for `Cc1nc2ccc(OC(F)(F)F)cc2c2c1O[C@]1(CC2)C[C@H]2C(=O)N[C@]3(C(=O)NS(=O)(=O)C4(C)CC4)C[C@H]3/C=C\CCCCC[C@H](NC(=O)OC3CCCC3)C(=O)N2C1` [Example 125, cyclopentyl [(2R,6S,12Z,13aS,14aR,16a5)-5′-methyl-14a-{[(1-methylcyclopropyl)sulfonyl]carbamoyl}-5,16-dioxo-9′-(trifluoromethoxy)-1,1′,2′,5,6,7,8,9,10,11,13a,14,14a,15,16,16a-hexadecahydrospiro[cyclopropa[e]pyrrolo[1,2-a][1,4]diazacyclopentadecine-2,3′-pyrano[2,3-c]quinolin]-6-yl]carbamate]: 0.016 nM and 3.71 nM.
The matching figures for `Cc1nc2ccccc2c2c1O[C@]1(CC2)C[C@H]2C(=O)N[C@]3(C(=O)NS(=O)(=O)C4(C)CC4)C[C@H]3/C=C\CCCCC[C@H](NC(=O)OC(C)C3CC3)C(=O)N2C1` (stereo partly drawn) [Example 126, 1-cyclopropylethyl [(2R,6S,12Z,13aS,14aR,16aS)-5′-methyl-14a-{[(1-methylcyclopropyl)sulfonyl]carbamoyl}-5,16-dioxo-1,1′,2′,5,6,7,8,9,10,11,13a,14,14a,15,16,16a-hexadecahydrospiro[cyclopropa[e]pyrrolo[1,2-a][1,4]diazacyclopentadecine-2,3′-pyrano[2,3-c]quinolin]-6-yl]carbamate]: 0.029 nM and 2.61 nM.
The matching figures for `Cc1nc2ccccc2c2c1O[C@]1(CC2)C[C@H]2C(=O)N[C@]3(C(=O)NS(=O)(=O)C4(C)CC4)C[C@H]3/C=C\CCCCC[C@H](NC(=O)OCCF)C(=O)N2C1` [Example 127, 2-fluoroethyl [(2R,6S,12Z,13aS,14aR,16aS)-5′-methyl-14a-{[(1-methylcyclopropyl)sulfonyl]carbamoyl}-5,16-dioxo-1,1′,2′,5,6,7,8,9,10,11,13a,14,14a,15,16,16a-hexadecahydrospiro[cyclopropa[e]pyrrolo[1,2-a][1,4]diazacyclopentadecine-2,3′-pyrano[2,3-c]quinolin]-6-yl]carbamate]: 0.031 nM and 0.394 nM.
As for `COCCOC(=O)N[C@H]1CCCCC/C=C\[C@@H]2C[C@@]2(C(=O)NS(=O)(=O)C2(C)CC2)NC(=O)[C@@H]2C[C@]3(CCc4c(c(C)nc5ccccc45)O3)CN2C1=O` [Example 128, 2-methoxyethyl [(2R,6S,12Z,13aS,14aR,16aS)-5′-methyl-14a-{[(1-methylcyclopropyl)sulfonyl]carbamoyl}-5,16-dioxo-1,1′,2′,5,6,7,8,9,10,11,13a,14,14a,15,16,16a-hexadecahydrospiro[cyclopropa[e]pyrrolo[1,2-a][1,4]diazacyclopentadecine-2,3′-pyrano[2,3-c]quinolin]-6-yl]carbamate], in experiment [1], inhibition was half-maximal at 0.044 nM (IC50). Further, in the experiment on HCV genotype 1b replicon (Hepatitis C virus), the EC50 is 2.01 nM.
The like results for `Cc1nc2ccccc2c2c1O[C@]1(CC2)C[C@H]2C(=O)N[C@]3(C(=O)NS(=O)(=O)C4(C)CC4)C[C@H]3/C=C\CCCCC[C@H](NC(=O)OCC(F)(F)F)C(=O)N2C1` [Example 129, 2,2,2-trifluoroethyl [(2R,6S,12Z,13aS,14aR,16aS)-5′-methyl-14a-{[(1-methylcyclopropyl)sulfonyl]carbamoyl}-5,16-dioxo-1,1′,2′,5,6,7,8,9,10,11,13a,14,14a,15,16,16a-hexadecahydrospiro[cyclopropa[e]pyrrolo[1,2-a][1,4]diazacyclopentadecine-2,3′-pyrano[2,3-c]quinolin]-6-yl]carbamate] were, in that order, 0.011 nM and 2.11 nM.
